Assay results published in publication PMC11345841, “Exploring 2-Sulfonylpyrimidine Warheads as Acrylamide Surrogates for Targeted Covalent Inhibition: A BTK Story” (Journal of Medicinal Chemistry, 2024).
Where a chain is given by its changes, count along the chain named. Where two headings read alike, the source gives them in different places.

Key:
Assay in all cases: KINOMEscan ScanTK
Format in all cases: binding
FAK = molecular target: T1, FAK (Homo sapiens, UniProt Q05397)
T1 construct: purchased Eurofins DiscoverX KINOMEscan (scanTK)

EGFR(E746-A750del) = molecular target: T2, EGFR(E746-A750del) (Homo sapiens, UniProt P00533, DEL746-750)
T2 construct: purchased Eurofins DiscoverX KINOMEscan (scanTK)

FLT3(K663Q) = molecular target: T3, FLT3(K663Q) (Homo sapiens, UniProt P36888, K663Q)
T3 construct: purchased Eurofins DiscoverX KINOMEscan (scanTK)
T3 sequence (P36888 27-993 K663Q): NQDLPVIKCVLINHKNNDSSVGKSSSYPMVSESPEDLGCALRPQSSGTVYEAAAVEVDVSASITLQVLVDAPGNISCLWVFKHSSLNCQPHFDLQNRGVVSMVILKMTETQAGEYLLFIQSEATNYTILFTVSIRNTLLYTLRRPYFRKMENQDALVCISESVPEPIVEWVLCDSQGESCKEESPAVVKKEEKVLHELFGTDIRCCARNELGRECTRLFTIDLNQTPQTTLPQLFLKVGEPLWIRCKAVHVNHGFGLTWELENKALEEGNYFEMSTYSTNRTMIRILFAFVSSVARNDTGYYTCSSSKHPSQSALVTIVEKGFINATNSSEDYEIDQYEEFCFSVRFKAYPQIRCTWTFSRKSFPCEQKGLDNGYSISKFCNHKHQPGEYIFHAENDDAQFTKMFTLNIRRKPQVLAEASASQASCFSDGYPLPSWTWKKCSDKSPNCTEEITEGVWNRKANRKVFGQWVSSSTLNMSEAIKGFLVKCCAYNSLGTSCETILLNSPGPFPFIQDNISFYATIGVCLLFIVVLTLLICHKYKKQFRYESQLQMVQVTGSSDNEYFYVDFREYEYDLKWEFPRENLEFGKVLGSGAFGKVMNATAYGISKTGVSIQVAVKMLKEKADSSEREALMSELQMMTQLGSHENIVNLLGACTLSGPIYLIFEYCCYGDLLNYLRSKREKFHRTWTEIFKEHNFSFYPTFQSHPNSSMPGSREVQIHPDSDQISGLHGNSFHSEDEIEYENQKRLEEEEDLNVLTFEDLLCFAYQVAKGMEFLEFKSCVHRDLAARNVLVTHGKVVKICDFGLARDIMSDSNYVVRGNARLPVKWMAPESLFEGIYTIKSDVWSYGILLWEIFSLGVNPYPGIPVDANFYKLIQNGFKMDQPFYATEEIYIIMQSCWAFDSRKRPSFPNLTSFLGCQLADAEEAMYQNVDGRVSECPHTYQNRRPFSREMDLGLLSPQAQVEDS

KIT(V559D,T670I) = molecular target: T4, KIT(V559D,T670I) (Homo sapiens, UniProt P10721, T670I/V559D)
T4 construct: purchased Eurofins DiscoverX KINOMEscan (scanTK)

[1] = molecular target: T5, ABL1(F317L)-nonphosphorylated (Homo sapiens, UniProt P00519, F317L)
T5 construct: purchased Eurofins DiscoverX KINOMEscan (scanTK)

FLT3(D835V) = molecular target: T6, FLT3(D835V) (Homo sapiens, UniProt P36888, D835V)
T6 construct: purchased Eurofins DiscoverX KINOMEscan (scanTK)
T6 sequence (P36888 27-993 D835V): T3 sequence (P36888 27-993 K663Q) with Q637K, D809V

EGFR(L747-T751del,Sins) = test system: EGFR(L747-T751del,Sins)
CSF1R = molecular target: T7, CSF1R (Homo sapiens, UniProt P07333)
T7 construct: purchased Eurofins DiscoverX KINOMEscan (scanTK)

VEGFR2 = molecular target: T8, VEGFR2 (Homo sapiens, UniProt P35968)
T8 construct: purchased Eurofins DiscoverX KINOMEscan (scanTK)

FLT1 = molecular target: T9, FLT1 (Homo sapiens, UniProt P17948)
T9 construct: purchased Eurofins DiscoverX KINOMEscan (scanTK)

FGFR2 = molecular target: T10, FGFR2 (Homo sapiens, UniProt P21802)
T10 construct: purchased Eurofins DiscoverX KINOMEscan (scanTK)

T9 sequence (P17948 27-1338): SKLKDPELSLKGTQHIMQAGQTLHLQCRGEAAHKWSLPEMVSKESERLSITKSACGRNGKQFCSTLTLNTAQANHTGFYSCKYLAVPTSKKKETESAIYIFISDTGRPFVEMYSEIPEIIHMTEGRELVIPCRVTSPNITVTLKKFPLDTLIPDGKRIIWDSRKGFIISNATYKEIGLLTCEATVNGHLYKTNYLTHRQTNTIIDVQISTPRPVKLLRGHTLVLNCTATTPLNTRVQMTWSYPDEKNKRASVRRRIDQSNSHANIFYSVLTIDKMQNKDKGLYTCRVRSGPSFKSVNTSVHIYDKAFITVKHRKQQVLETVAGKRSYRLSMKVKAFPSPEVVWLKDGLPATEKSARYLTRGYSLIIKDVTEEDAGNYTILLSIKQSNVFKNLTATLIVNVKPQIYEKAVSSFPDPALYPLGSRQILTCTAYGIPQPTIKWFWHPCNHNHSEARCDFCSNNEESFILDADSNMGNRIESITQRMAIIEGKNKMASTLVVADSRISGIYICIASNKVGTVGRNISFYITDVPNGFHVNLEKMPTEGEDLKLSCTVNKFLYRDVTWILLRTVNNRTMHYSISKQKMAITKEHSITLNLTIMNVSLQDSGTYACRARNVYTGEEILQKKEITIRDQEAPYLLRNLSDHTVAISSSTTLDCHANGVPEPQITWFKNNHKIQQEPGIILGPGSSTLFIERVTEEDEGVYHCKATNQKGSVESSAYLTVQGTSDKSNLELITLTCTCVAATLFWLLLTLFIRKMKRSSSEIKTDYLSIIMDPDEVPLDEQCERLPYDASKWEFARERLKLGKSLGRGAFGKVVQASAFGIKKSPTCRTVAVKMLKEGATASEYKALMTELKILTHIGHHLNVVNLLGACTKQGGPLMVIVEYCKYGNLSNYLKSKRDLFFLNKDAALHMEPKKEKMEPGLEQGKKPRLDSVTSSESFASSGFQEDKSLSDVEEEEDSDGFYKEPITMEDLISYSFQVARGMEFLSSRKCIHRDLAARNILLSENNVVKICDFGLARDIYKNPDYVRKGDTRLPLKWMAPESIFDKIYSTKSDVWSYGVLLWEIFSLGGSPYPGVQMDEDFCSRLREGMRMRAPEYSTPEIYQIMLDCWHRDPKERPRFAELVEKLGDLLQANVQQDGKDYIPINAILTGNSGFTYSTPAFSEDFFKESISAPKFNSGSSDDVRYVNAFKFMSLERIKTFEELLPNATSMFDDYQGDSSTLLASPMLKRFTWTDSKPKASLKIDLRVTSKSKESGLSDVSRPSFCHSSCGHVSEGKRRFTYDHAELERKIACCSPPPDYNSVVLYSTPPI
T5 sequence (P00519 whole entry F317L): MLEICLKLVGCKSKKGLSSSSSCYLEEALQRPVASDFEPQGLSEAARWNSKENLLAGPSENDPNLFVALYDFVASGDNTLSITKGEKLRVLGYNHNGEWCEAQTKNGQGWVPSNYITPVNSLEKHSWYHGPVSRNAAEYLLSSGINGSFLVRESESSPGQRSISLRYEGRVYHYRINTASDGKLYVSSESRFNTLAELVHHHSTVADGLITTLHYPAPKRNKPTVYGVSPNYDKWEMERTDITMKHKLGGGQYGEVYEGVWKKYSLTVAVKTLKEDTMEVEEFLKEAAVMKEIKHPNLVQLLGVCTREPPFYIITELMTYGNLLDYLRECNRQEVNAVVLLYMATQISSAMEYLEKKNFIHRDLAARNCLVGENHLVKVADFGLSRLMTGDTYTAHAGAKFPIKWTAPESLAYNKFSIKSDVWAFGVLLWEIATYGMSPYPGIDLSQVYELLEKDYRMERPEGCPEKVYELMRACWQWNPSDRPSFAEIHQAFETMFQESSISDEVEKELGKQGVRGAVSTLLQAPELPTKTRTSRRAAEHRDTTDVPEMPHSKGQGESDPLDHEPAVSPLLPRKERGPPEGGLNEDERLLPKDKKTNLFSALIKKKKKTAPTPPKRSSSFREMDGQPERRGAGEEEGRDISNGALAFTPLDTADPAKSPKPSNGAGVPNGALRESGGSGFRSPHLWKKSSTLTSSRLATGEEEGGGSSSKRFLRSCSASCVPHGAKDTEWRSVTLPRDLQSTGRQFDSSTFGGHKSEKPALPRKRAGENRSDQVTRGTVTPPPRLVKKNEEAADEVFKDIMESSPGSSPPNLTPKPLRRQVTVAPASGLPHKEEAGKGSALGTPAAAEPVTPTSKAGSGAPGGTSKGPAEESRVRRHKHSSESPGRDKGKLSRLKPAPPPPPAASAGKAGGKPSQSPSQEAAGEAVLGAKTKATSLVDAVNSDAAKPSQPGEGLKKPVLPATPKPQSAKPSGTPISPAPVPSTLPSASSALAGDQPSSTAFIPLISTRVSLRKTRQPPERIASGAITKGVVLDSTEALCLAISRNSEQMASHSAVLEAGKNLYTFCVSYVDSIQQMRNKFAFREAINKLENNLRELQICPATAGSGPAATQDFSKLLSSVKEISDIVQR
T1 sequence (Q05397 whole entry): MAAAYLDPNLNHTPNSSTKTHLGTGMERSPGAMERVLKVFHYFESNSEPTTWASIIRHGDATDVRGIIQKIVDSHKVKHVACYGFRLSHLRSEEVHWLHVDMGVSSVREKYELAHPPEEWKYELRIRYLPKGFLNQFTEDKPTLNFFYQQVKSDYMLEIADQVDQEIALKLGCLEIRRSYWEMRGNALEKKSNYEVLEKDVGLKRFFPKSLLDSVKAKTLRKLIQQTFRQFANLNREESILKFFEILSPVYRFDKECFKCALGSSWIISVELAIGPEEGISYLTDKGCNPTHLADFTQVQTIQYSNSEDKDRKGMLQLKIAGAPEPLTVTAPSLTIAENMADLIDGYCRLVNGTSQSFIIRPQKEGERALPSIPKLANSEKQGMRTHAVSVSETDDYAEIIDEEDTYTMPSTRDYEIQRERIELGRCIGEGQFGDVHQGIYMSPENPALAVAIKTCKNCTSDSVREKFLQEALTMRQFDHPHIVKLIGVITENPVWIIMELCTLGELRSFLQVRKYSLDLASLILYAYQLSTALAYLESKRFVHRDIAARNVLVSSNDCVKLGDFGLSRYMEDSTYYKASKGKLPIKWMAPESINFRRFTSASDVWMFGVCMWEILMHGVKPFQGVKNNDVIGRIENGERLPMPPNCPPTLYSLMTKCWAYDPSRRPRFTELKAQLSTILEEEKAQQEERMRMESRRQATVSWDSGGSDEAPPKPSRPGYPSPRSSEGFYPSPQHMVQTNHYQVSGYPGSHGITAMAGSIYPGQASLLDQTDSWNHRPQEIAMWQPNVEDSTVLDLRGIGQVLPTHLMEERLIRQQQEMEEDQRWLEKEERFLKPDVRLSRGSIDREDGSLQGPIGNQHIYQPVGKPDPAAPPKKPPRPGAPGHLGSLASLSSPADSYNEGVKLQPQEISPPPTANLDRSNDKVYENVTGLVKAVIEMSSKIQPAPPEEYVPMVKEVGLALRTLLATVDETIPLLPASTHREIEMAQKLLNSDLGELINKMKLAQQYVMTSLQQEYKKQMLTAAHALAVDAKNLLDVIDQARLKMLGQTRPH
T7 sequence (P07333 20-972): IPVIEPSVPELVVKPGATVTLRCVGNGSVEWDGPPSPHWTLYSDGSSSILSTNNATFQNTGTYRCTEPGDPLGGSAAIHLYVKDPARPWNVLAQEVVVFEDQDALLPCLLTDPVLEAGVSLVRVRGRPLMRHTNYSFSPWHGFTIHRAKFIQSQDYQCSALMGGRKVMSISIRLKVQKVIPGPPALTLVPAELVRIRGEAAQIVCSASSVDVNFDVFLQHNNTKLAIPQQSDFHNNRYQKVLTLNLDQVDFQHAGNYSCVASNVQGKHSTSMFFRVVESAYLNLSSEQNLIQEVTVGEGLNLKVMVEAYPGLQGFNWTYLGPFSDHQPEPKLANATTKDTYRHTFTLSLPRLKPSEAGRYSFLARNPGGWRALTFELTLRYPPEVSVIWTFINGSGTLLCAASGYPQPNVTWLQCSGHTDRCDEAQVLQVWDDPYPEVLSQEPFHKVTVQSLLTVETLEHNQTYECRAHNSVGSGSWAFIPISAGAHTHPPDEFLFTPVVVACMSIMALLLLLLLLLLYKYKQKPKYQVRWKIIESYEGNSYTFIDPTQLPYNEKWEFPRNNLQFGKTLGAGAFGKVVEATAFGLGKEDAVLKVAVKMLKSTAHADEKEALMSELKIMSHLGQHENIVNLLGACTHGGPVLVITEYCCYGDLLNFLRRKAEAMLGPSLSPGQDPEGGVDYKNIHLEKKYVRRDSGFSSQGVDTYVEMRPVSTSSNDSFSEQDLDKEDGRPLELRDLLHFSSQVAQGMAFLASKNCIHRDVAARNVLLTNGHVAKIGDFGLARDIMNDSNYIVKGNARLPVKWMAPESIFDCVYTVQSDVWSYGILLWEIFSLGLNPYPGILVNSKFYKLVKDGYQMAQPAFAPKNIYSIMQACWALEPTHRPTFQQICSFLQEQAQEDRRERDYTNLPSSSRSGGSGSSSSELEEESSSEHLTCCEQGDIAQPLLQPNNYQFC
T2 sequence (P00533 with tags, fused parts or gaps DEL746-750 limits assumed): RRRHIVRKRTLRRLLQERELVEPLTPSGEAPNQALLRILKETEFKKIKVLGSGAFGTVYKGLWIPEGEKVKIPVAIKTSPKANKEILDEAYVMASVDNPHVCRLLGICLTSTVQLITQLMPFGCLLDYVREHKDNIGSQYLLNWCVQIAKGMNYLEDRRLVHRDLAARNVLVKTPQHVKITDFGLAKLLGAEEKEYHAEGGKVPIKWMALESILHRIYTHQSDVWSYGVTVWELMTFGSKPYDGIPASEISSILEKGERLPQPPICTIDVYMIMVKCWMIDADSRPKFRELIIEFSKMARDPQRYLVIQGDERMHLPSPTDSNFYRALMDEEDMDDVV

Molecule `CNC(=O)c1cnc(S(C)(=O)=O)nc1N1CCCC(n2nc(-c3ccc(Oc4ccccc4)cc3)c3c(N)ncnc32)C1` (centres unmarked) [Compound 8d, 4-(3-(4-Amino-3-(4-phenoxyphenyl)-1H-pyrazolo[3,4-d]pyrimidin-1-yl)piperidin-1-yl)-N-methyl-2-(methylsulfonyl)pyrimidine-5-carboxamide] has a difference in %Control versus compound Ib at 1 µM (FAK; @1000nM) of 0%, a remaining binding at 1 µM (FAK; @1000nM, read-out: %Control) of 100% and a remaining binding at 1 µM (FAK; read-out: %Control @1000nM) of 100%. It also gave a difference in %Control from reference compound Ib at 1 µM (EGFR(E746-A750del); @1000nM) of 74%, a remaining binding at 1 µM (EGFR(E746-A750del); @1000nM, read-out: %Control) of 85% and a remaining binding at 1 µM (EGFR(E746-A750del); read-out: %Control @1000nM) of 85%. It also gave a difference in %Control from compound Ib at 1 µM (FLT3(K663Q); @1000nM) of 36%, a remaining binding at 1 µM (FLT3(K663Q); @1000nM, read-out: %Control) of 80% and a remaining binding at 1 µM (FLT3(K663Q); read-out: %Control @1000nM) of 80%. For the same molecule, the difference in %Control versus compound Ib at 1 µM (KIT(V559D,T670I); @1000nM) was 11%, the remaining binding at 1 µM (KIT(V559D,T670I); @1000nM, read-out: %Control) was 79% and the remaining binding at 1 µM (KIT(V559D,T670I); read-out: %Control @1000nM) was 79%. It also gave a difference in % of control binding versus compound Ib at 1 µM ([1]; @1000nM) of 22%, a remaining binding at 1 µM ([1]; @1000nM, read-out: %Control) of 54% and a remaining binding at 1 µM ([1]; read-out: %Control @1000nM) of 54%. For the same molecule, the difference in %Control versus compound Ib at 1 µM (FLT3(D835V); @1000nM) was 13.1%, the remaining binding at 1 µM (FLT3(D835V); @1000nM, read-out: %Control) was 23% and the remaining binding at 1 µM (FLT3(D835V); read-out: %Control @1000nM) was 23%. For the same molecule, the “%Control @1000nM” value (EGFR(L747-T751del,Sins)) was 30%, the “% difference (compound - Ib %Control)” value (EGFR(L747-T751del,Sins); @1000nM) was 27.4% and the “%Control” value (EGFR(L747-T751del,Sins); @1000nM) was 30%. The difference in %Control versus compound Ib at 1 µM (CSF1R; @1000nM) was 19%, the remaining binding at 1 µM (CSF1R; @1000nM, read-out: %Control) was 99% and the remaining binding at 1 µM (CSF1R; read-out: %Control @1000nM) was 99%. For the same molecule, the remaining binding at 1 µM (VEGFR2; @1000nM, read-out: %Control) was 88%, the remaining binding at 1 µM (VEGFR2; read-out: %Control @1000nM) was 88% and the difference in %Control from compound Ib at 1 µM (FLT1; @1000nM) was 28%. The remaining binding at 1 µM (FLT1; @1000nM, read-out: %Control) was 100%, the remaining binding at 1 µM (FLT1; read-out: %Control @1000nM) was 100% and the difference in %Control vs compound Ib at 1 µM (FGFR2; @1000nM) was 35%. It also gave a remaining binding at 1 µM (FGFR2; @1000nM, read-out: %Control) of 74% and a remaining binding at 1 µM (FGFR2; read-out: %Control @1000nM) of 74%.
